In brackets after ≈: the same amount, converted by molar mass. Read-outs that look alike come from different tables or passages of the source.

For one assay, the system named is E. coli GC2270 (tet(M)). Put plainly: MIC broth microdilution, E. coli GC2270 (tet(M)). The format is cell-based. To be noted: MHBII, 18-22 hours at 35° C. Here is the method: (§1) Methods for in Vitro Antibacterial Evaluation
(§2) The minimum inhibitory concentration (MIC)
(§3) Antimicrobial susceptibility testing. The in vitro activities of representative examples of antibiotics of the invention are determined by the broth microdilution method as recommended by the National Committee for Clinical Laboratory Standards (NCCLS) (1). Mueller-Hinton II broth (MHBII)(BBL Cockeysville, Md.) is the medium employed in the testing procedures. Microtiter plates containing serial dilutions of each antimicrobial agent are inoculated with each organism to yield the appropriate density (10^5 CFU/ml) in a 100 μl final volume. The plates are incubated for 18-22 hours at 35° C. in ambient air. […] NCCLS. 2000. Methods for Dilution Antimicrobial Susceptibility Tests for Bacteria That Grow Aerobically; Approved Standards: M7-A5, vol. 20. National Committe for Clinical Laboratory Standards, Wayne, Pa.

Assay [1] concerns E. coli GC4559 (parent GC4560). The assay can be described thus: MIC broth microdilution, E. coli GC4559 (parent GC4560). Type of assay: cell-based. To be noted: MHBII, 18-22 hours at 35° C. The procedure: as §1, §2, §3
The test system of assay [2] is E. coli GC4560 (IMP mutant). The assay can be described thus: MIC broth microdilution, E. coli GC4560 (IMP mutant). The format is cell-based. To be noted: MHBII, 18-22 hours at 35° C. The procedure: as §1, §2, §3
Assay [3] has as its system E. coli GC2203 (ATCC Control). Put plainly: MIC broth microdilution, E. coli GC2203 (ATCC Control). Type of assay: cell-based. Particulars: MHBII, 18-22 hours at 35° C. The procedure: as §1, §2, §3
A further assay relates to E. coli GC1073 (tet(B)). The assay can be described thus: MIC broth microdilution, E. coli GC1073 (tet(B)). To be noted: MHBII, 18-22 hours at 35° C. Type of assay: cell-based. Here is the method: as §1, §2, §3
Assay [4] relates to S. aureus GC1131 (Clinical). The assay can be described thus: MIC broth microdilution, S. aureus GC1131 (Clinical). Type of assay: cell-based. Particulars: MHBII, 18-22 hours at 35° C. Here is the method:
as §1, §2, §3

Assay [5] relates to S. aureus GC6466 (tet(M)). The assay can be described thus: MIC broth microdilution, S. aureus GC6466 (tet(M)). The format is cell-based. Particulars: MHBII, 18-22 hours at 35° C. Here is the method:
as §1, §2, §3

Assay [6] relates to S. aureus GC6467 (tet(M) + (K)). Put plainly: MIC broth microdilution, S. aureus GC6467 (tet(M) + (K)). The format is cell-based. To be noted: MHBII, 18-22 hours at 35° C. Here is the method: as §1, §2, §3
Assay [7] concerns S. aureus GC1079 (tet(K)). Put plainly: MIC broth microdilution, S. aureus GC1079 (tet(K)). The format is cell-based. To be noted: MHBII, 18-22 hours at 35° C. Here is the method:
as §1, §2, §3

Assay [8] relates to S. aureus GC4536 (Smith MP -In Vivo). Put plainly: MIC broth microdilution, S. aureus GC4536 (Smith MP -In Vivo). The format is cell-based. To be noted: MHBII, 18-22 hours at 35° C. Here is the method:
as §1, §2, §3

Assay [9] concerns S. aureus GC2216 (ATCC Control). The assay can be described thus: MIC broth microdilution, S. aureus GC2216 (ATCC Control). The format is cell-based. Particulars: MHBII, 18-22 hours at 35° C. The procedure:
as §1, §2, §3

For assay [10], the system named is E. faecalis GC4555 (ATCC Control). Put plainly: MIC broth microdilution, E. faecalis GC4555 (ATCC Control). The format is cell-based. To be noted: MHBII, 18-22 hours at 35° C. Here is the method: as §1, §2, §3
Assay [11] has as its system E. faecalis GC2267 (tet(L) + (M) + (S)). The assay can be described thus: MIC broth microdilution, E. faecalis GC2267 (tet(L) + (M) + (S)). Type of assay: cell-based. Particulars: MHBII, 18-22 hours at 35° C. The procedure: as §1, §2, §3
Assay [12] relates to E. faecalis GC2242 (Van-resistant). Put plainly: MIC broth microdilution, E. faecalis GC2242 (Van-resistant). The format is cell-based. Particulars: MHBII, 18-22 hours at 35° C. The procedure:
as §1, §2, §3

The subject of assay [13] is S. pneumoniae* GC4465 (Clinical). The assay can be described thus: MIC broth microdilution, S. pneumoniae GC4465 (Clinical). Type of assay: cell-based. Particulars: 18-22 hours at 35° C. The procedure: as §1, §2, §3
For assay [14], the system named is S. pneumoniae* GC1894 (Clinical). Put plainly: MIC broth microdilution, S. pneumoniae GC1894 (Clinical). The format is cell-based. To be noted: 18-22 hours at 35° C. Here is the method: as §1, §2, §3
Assay [15] relates to S. pyogenes* GC4563 (Clinical). The assay can be described thus: MIC broth microdilution, S. pyogenes GC4563 (Clinical). Type of assay: cell-based. To be noted: 18-22 hours at 35° C. The procedure:
as §1, §2, §3

Assay [16] concerns M. catarrhalis* GC6907 (Clinical). Put plainly: MIC broth microdilution, M. catarrhalis GC6907 (Clinical). Type of assay: cell-based. To be noted: 18-22 hours at 35° C. Here is the method: as §1, §2, §3
For assay [17], the system named is H. influenzae<> GC6896 (ATCC Control). Put plainly: MIC broth microdilution, H. influenzae GC6896 (ATCC Control). The format is cell-based. Particulars: 18-22 hours at 35° C. The procedure:
as §1, §2, §3

For assay [18], the system named is C. albicans GC3066 ATCC (Control). The assay can be described thus: MIC broth microdilution, C. albicans GC3066 ATCC (Control). Particulars: 18-22 hours at 35° C. The format is cell-based. Here is the method:
as §1, §2, §3

The subject of assay [19] is Staphylococcal aureus Smith M P. The assay can be described thus: In vivo antibacterial evaluation, acute lethal infection in mice. To be noted: single oral dose 30 minutes after intraperitoneal challenge, female CD-1 mice, 7 day survival ratios, 3 tests pooled; for ED50: Mus musculus, read-out: SOD* ED50. The procedure: In Vivo Antibacterial Evaluation: The therapeutic effects of representative examples of the invention are determined against acute lethal infection with Staphylococcal aureus Smith M P, Female mice, strain CD-1 (Charles River Laboratoties), ca. 20 grams, are challenged by an intraperitoneal injection of sufficient bacteria (suspended in broth or hog mucin) to kill non-treated controls within 24-28 hours. Antibacterial agents, contained in 0.5 ml of 0.2% aqueous agar, are administered subcutaneously or orally 30 minutes after injection. When an oral dosing schedule is used, animal are deprived of food for 5 hours before and 2 hours after injection. Five mice are treated at each dose level. The 7 day survival ratios from 3 separate tests are pooled for calculation of median effective dose (ED50).

Assay [20] shares this test system. Put plainly: MIC reported in Table 2 beside the in vivo ED50. The format is cell-based. Particulars: Staphylococcus aureus, infecting strain S. aureus Smith MP. The procedure: Antimicrobial susceptibility testing. The in vitro activities of representative examples of antibiotics of the invention are determined by the broth microdilution method as recommended by the National Committee for Clinical Laboratory Standards (NCCLS) (1). Mueller-Hinton II broth (MHBII)(BBL Cockeysville, Md.) is the medium employed in the testing procedures. Microtiter plates containing serial dilutions of each antimicrobial agent are inoculated with each organism to yield the appropriate density (10^5 CFU/ml) in a 100 μl final volume. The plates are incubated for 18-22 hours at 35° C. in ambient air. […] NCCLS. 2000. Methods for Dilution Antimicrobial Susceptibility Tests for Bacteria That Grow Aerobically; Approved Standards: M7-A5, vol. 20. National Committe for Clinical Laboratory Standards, Wayne, Pa. In Vivo Antibacterial Evaluation: The therapeutic effects of representative examples of the invention are determined against acute lethal infection with Staphylococcal aureus Smith M P, Female mice, strain CD-1 (Charles River Laboratoties), ca. 20 grams, are challenged by an intraperitoneal injection of sufficient bacteria (suspended in broth or hog mucin) to kill non-treated controls within 24-28 hours. Antibacterial agents, contained in 0.5 ml of 0.2% aqueous agar, are administered subcutaneously or orally 30 minutes after injection. When an oral dosing schedule is used, animal are deprived of food for 5 hours before and 2 hours after injection. Five mice are treated at each dose level. The 7 day survival ratios from 3 separate tests are pooled for calculation of median effective dose (ED50).

For assay [21] the test system is unchanged. The assay can be described thus: In vivo antibacterial evaluation, acute lethal infection in mice. Particulars: single intraveneous dose, female CD-1 mice, 7 day survival ratios, 3 tests pooled; for ED50: Mus musculus, iv, 168 h, read-out: SIV* ED50.

Take `CC(C)N(O)CC(=O)Nc1cc(N(C)C)c2c(c1O)C(=O)C1=C(O)[C@]3(O)C(=O)C(C(N)=O)=C(O)[C@@H](N(C)C)[C@@H]3C[C@@H]1C2` [Example 2, (4S,4aS,5aR,12aS)-4,7-bis(dimethylamino)-3,10,12,12a-tetrahydroxy-9-[(N-hydroxy-N-isopropylglycyl)amino]-1,11-dioxo-1,4,4a,5,5a,6,11,12a-octahydrotetracene-2-carboxamide]: the “minimum inhibitory concentration (MIC)” value worked out at 4 with E. coli GC2270 (tet(M)); 8 in assay [1]; 0.25 in [2]; 2 in [3]; 16 in the assay with E. coli GC1073 (tet(B)); 4 in [4]. Further, the “minimum inhibitory concentration (MIC)” value came to 4 in [5]; 16 in [6]; 8 in [7]; 4 in [8]; 2 in assay [9]; 1 in assay [10]. In addition, the “minimum inhibitory concentration (MIC)” value is 4 in assay [11]; 2 in [12]; 0.25 in assay [13]; 0.25 in assay [14]; 0.25 in [15]; 1 in assay [16]. The “minimum inhibitory concentration (MIC)” value in assay [17] is 2; in assay [18] it was >64. The figures for the ED50 in assay [19] and in assay [21] were 18 mg/kg and 0.25 to 0.5 mg/kg, respectively. The compound further registered an MIC in assay [20] of 1 µg/mL (≈ 1.7 µM).
Turning to `CN(C)c1cc(NC(=O)CNC(C)(C)C)c(O)c2c1C[C@H]1C[C@H]3[C@H](N(C)C)C(O)=C(C(N)=O)C(=O)[C@@]3(O)C(O)=C1C2=O` [GAR-936, reference compound], the “SOD* ED50” value in assay [19] is given as 36 mg/kg. In addition, the “SIV* ED50” value in [21] is 0.46 mg/kg.
With `CN(C)c1ccc(O)c2c1C[C@H]1C[C@H]3[C@H](N(C)C)C(O)=C(C(N)=O)C(=O)[C@@]3(O)C(O)=C1C2=O` [Minocycline, 7-(dimethylamino)-6-demethyl-6-deoxytetracycline, reference compound], the “minimum inhibitory concentration (MIC)” value is given as 64 with E. coli GC2270 (tet(M)); 2 in assay [1]; 16 with E. coli GC1073 (tet(B)); 8 in assay [5]; 4 in assay [10]; 16 in [11]. Further, the “minimum inhibitory concentration (MIC)” value is listed as 4 in assay [14], <0.06 in [15], <0.06 in assay [16] and >64 in assay [18]. Also, the 50% effective dose (ED50) in assay [19] lay within 0.6 to 0.93 mg/kg; in assay [21], 0.37 to 0.42 mg/kg. For the same compound, in [20], the MIC turned out to be 0.25 µg/mL (≈ 0.546 µM).
With `CN(C)[C@@H]1C(O)=C(C(N)=O)C(=O)[C@@]2(O)C(O)=C3C(=O)c4c(O)c(NC(=O)CN5CCCCO5)cc(-c5cccs5)c4C[C@H]3C[C@@H]12` [Example 10, (4S,4aS,5aR,12aS)-4-(dimethylamino)-3,10,12,12a-tetrahydroxy-9-[(1,2-oxazinan-2-ylacetyl)amino]-1,11-dioxo-7-thien-2-yl-1,4,4a,5,5a,6,11,12a-octahydrotetracene-2-carboxamide], the “minimum inhibitory concentration (MIC)” value is >64 in the assay with E. coli GC2270 (tet(M)); >64 in [1]; 4 in [2]; >64 in [3]; >64 in the assay with E. coli GC1073 (tet(B)); 4 in assay [4]. Also, the “minimum inhibitory concentration (MIC)” value in assay [5] was found to be 2; in assay [6], 8; in assay [7], 4; in assay [8], 4; in [9], 4; in [10], 8. For the same compound, the “minimum inhibitory concentration (MIC)” value in [11] is on record as 4; in [12] it was 4; in assay [13] it was 2; in [14], 2; in assay [15] it was 2; in [16], 2. In addition, the “minimum inhibitory concentration (MIC)” value in [17] and in assay [18] was >64 throughout.
As for `CN(C)[C@@H]1C(O)=C(C(N)=O)C(=O)[C@@]2(O)C(O)=C3C(=O)c4c(O)c(NC(=O)CN5CCCCO5)cc(I)c4C[C@H]3C[C@@H]12` [Example 9, (4S,4aS,5aR,12aS)-4-(dimethylamino)-3,10,12,12a-tetrahydroxy-7-iodo-9[(1,2-oxazinan-2-ylacetyl)amino]-1,11-dioxo-1,4,4a,5,5a,6,11,12a-octahydrotetracene-2-carboxamide], the “minimum inhibitory concentration (MIC)” value with E. coli GC2270 (tet(M)) was >64; in [1] it was >64; in assay [2] it was 2; in assay [3], >64; in the assay with E. coli GC1073 (tet(B)) it was >64; in [4], 2. In addition, the “minimum inhibitory concentration (MIC)” value in assay [5] was found to be 1; in [6], 4; in assay [7] it was 2; in assay [8] it was 4; in assay [9] it was 1; in assay [10] it was 4. Moreover, the “minimum inhibitory concentration (MIC)” value in assay [11] stood at 2; in assay [12], 8; in assay [13] it was 1; in assay [14], 0.50; in assay [15], 1; in [16], 2. Moreover, the “minimum inhibitory concentration (MIC)” value in assay [17] and in assay [18] was >64 throughout.

These data come from US7812008B2, “9-substituted tetracyclines” (Wyeth LLC, priority 2005, dated 2010).
